Results reported in patent publication US20230116602A1, “MCL1 INHIBITORS AND USES THEREOF” (California Institute of Technology, priority 2019, published 2023).

Experiments:
[1] = molecular target: MCL1 (Homo sapiens, UniProt Q07820); experiment: MCL1 affinity assay (competition binding, qPCR readout); conditions: recombinant MCL1, 11-point 3-fold dilution series
Protocol: Recombinant MCL1, BCL2 and BCXL proteins were prepared in either an E. coli host derived from the BL21 strain or in HEK-293 cells. The recombinant proteins were subsequently tagged with DNA for qPCR detection. Streptavidin-coated magnetic beads were treated for 30 minutes at room temperature with the respective biotinylated peptide ligands for each recombinant protein to generate affinity resins for the assays. The liganded beads were blocked with excess biotin and washed with blocking buffer (SeaBlock (Pierce), 1% BSA, 0.05% Tween 20, 1 mM DTT) to remove unbound ligand and to reduce nonspecific binding. Binding reactions were assembled by combining recombinant protein, liganded affinity beads, and test compounds in 1× binding buffer (20% SeaBlock, 0.17×PBS, 0.05% Tween 20, 6 mM DTT). Test compounds were prepared as 111X stocks in 100% DMSO. The compounds were then diluted directly into the assays such that the final concentration of DMSO was 0.9%. The assay plates were incubated at room temperature with shaking for 1 hour and the affinity beads were washed with wash buffer (1×PBS, 0.05% Tween 20). The beads were then re-suspended in elution buffer (1×PBS, 0.05% Tween 20, 0.5 μM non-biotinylated affinity ligand) and incubated at room temperature with shaking for 30 minutes. The recombinant protein concentration in the eluates was measured by qPCR. Kds were determined using an 11-point 3-fold compound dilution series with three DMSO control points.

[2] = tested on: drug-sensitive cell lines of Table 3; experiment: Cell line growth retardation assay, sensitive cohort; type: cell-based, Human; conditions: for IC50: Homo sapiens, 144 h, arithmetic mean of IC50s over the sensitive cohort of Table 3, 6 days growth, read-out: AvgSen IC50; for Fold Diff: average IC50 of resistant cohort divided by average IC50 of sensitive cohort
Protocol: (§1) Cells were seeded at densities of 1,000-5,000 cells per well in 48-well tissue culture plates. After a 24 h rest period, cells were treated with compound at 10 μM, 1 μM, […], 0.08 μM, 0.016 μM, and 0.0032 μM. A group of cells were treated with the vehicle in which the compound was prepared and served as a control. Prior to treatment, cells were counted and this count was used as a baseline for the calculation of growth inhibition. The cells were grown in the presence of compounds for 6 days and were counted on day 6. All cell counting was performed using a Synentec Cellavista plate imager. Growth inhibition was calculated as a ratio of cell population doublings in the presence of compound versus the absence of compound. […] IC50 values for each compound were calculated by fitting curves to data points from each dose-response assay using the Proc NLIN function in SAS for Windows version 9.2 (SAS Institute, Inc.).
(§2) Human cancer cell lines were grouped as “sensitive” or “resistant” to MCL1 inhibition based on whether their growth was retarded by AMG-176 (i.e., (1′S,11R,12S,14E,16S,16aR,18aR)-6′-Chloro-3′,4′,12,13,16,16a,17,18,18a,19-decahydro-16-methoxy-11,12-dimethyl-,Spiro[5,7-etheno-1H,11H-cyclobut[i][1,4]oxazepino[3,4-f][1,2,7]thiadiazacyclohexadecine-2(3H),1′(2′H)-naphthalen]-8(9H)-one 10,10-dioxide) or MIK665 (i.e., (R)-2-((5-(3-chloro-2-methyl-4-(2-(4-methylpiperazin-1-yl)ethoxy)phenyl)-6-(4-fluorophenyl)thieno[2,3-d]pyrimidin-4-yl)oxy)-3-(2-((2-(2-methoxyphenyl)pyrimidin-4-yl)methoxy)phenyl)propanoic acid) (data not shown; see Table 3). These sensitive and resistant cohorts were interrogated for response to each compound, and IC50S were calculated for each cell line using the same technique described above. Average IC50S for the sensitive (“AvgSen IC50”) and resistant (“AvgRes IC50”) cohorts were calculated as arithmetic means of the group, and fold differences (“Fold Diff”) between the resistant and sensitive cohorts were calculated by diving the average IC50 for the resistant cohort by the average IC50 for the sensitive cohort. “A” represents an IC50 of 1 μM or less, “B” represents an IC50 of greater than 1 μM to 5 μM, “C” represents an IC50 of greater than 5 μM, “+” represents a fold difference of 10 or more, and “−” represents a fold difference less than 10.

[3] = tested on: drug-resistant cell lines of Table 3; experiment: Cell line growth retardation assay, resistant cohort; type: cell-based, Human; conditions: Homo sapiens, 144 h; arithmetic mean of IC50s over the resistant cohort of Table 3, 6 days growth; read-out: AvgRes IC50
Protocol: as §1, §2

Chain of MCL1 (Q07820 whole entry): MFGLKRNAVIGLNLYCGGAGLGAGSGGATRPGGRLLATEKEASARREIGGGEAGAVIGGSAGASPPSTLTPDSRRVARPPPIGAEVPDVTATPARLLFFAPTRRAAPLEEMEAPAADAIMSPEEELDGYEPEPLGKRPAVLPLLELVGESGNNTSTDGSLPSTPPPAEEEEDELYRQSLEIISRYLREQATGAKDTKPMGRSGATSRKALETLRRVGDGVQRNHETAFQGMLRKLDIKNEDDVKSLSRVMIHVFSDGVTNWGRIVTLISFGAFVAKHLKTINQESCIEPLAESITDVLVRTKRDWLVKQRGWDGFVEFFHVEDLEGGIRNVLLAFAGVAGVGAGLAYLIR

| Structure (SMILES) | Kd [1] [nM] | IC50 [2] [nM] | Fold Diff [2] | IC50 [3] [nM] |
| --- | --- | --- | --- | --- |
| COc1cccc(-c2ncc3snc(O[C@H](Cc4ccccc4OCc4ccnc(OCCC(F)(F)F)n4)C(=O)O)c3c2-c2ccc(OCCN3CCN(C)CC3)c(Cl)c2C)c1 (atropisomer, axis not shown) [Compound 57] | ≤ 100 | ≤ 1000 | + (“+” represents a fold difference of 10 or more) | > 5000 |
| COc1cccc(-c2ncc3snc(O[C@H](Cc4ccccc4OCc4ccnc(N5CCC(OC)CC5)n4)C(=O)O)c3c2-c2ccc(OCCN3CCN(C)CC3)c(Cl)c2C)c1 (atropisomer, axis not shown) [Compound 70] | 101 to 500 | ≤ 1000 | + (“+” represents a fold difference of 10 or more) | > 5000 |
| COc1cccc(-c2ncc3snc(O[C@H](Cc4ccccc4OCc4ccnc(-c5cc(F)ccc5OC)n4)C(=O)O)c3c2-c2ccc(OCCN3CCN(C)CC3)c(Cl)c2C)c1 (atropisomer, axis not shown) [Compound 67] | ≤ 100 | ≤ 1000 | + (“+” represents a fold difference of 10 or more) | > 5000 |
| COc1cccc(-c2ncc3snc(O[C@H](Cc4ccccc4OCc4ccnc(N5CCCC(F)(F)C5)n4)C(=O)O)c3c2-c2ccc(OCCN3CCN(C)CC3)c(Cl)c2C)c1 (atropisomer, axis not shown) [Compound 61] | 101 to 500 | ≤ 1000 | + (“+” represents a fold difference of 10 or more) | > 5000 |
| Cc1c(-c2c(-c3cccc(F)c3)ncc3snc(O[C@H](Cc4ccccc4OCc4ccnc(OCC(F)(F)F)n4)C(=O)O)c23)ccc(OCCN2CCN(C)CC2)c1Cl (atropisomer, axis not shown) [Compound 69] | ≤ 100 | ≤ 1000 | + (“+” represents a fold difference of 10 or more) | > 5000 |
| Cc1c(-c2c(C3CCC3)ncc3snc(O[C@H](Cc4ccccc4OCc4ccnc(-c5ccc(OCc6ccccc6)nc5)n4)C(=O)O)c23)ccc(OCCN2CCN(C)CC2)c1Cl (atropisomer, axis not shown) [Compound 113] | > 1500 | > 5000 | − (“−” represents a fold difference less than 10) | > 5000 |
| COc1ccccc1-c1nccc(COc2ccccc2C[C@@H](Oc2nsc3cnc(-c4ccc(F)cc4)c(-c4ccc(OCCC5CCN(C)CC5)c(Cl)c4C)c23)C(=O)O)n1 (atropisomer, axis not shown) [Compound 81] | ≤ 100 | 1000 to 5000 | − (“−” represents a fold difference less than 10) | > 5000 |
| Cc1c(-c2cc(-n3c(C)c(Cl)c4cc(Cl)cnc43)cc3snc(O[C@H](Cc4ccccc4OCc4ccnn4CC(F)(F)F)C(=O)O)c23)ccc(OCCN2CCN(C)CC2)c1Cl [Compound 100] | 501 to 1500 | 1000 to 5000 | − (“−” represents a fold difference less than 10) | > 5000 |
| Cc1c(-c2cc(-n3c(=O)n(C)c4cc(Cl)ccc43)cc3snc(O[C@H](Cc4ccccc4OCc4ccnn4CC(F)(F)F)C(=O)O)c23)ccc(OCCN2CCN(C)CC2)c1Cl [Compound 99] | > 1500 | > 5000 | − (“−” represents a fold difference less than 10) | > 5000 |

Continued, in another order:

| Kd [1] [nM] | Structure (SMILES) | IC50 [2] [nM] | Fold Diff [2] | IC50 [3] [nM] |
| --- | --- | --- | --- | --- |
| 101 to 500 | Cc1c(-c2c(C3CCC3)ncc3snc(O[C@H](Cc4ccccc4OCc4ccnc(C5CC5)n4)C(=O)O)c23)ccc(OCCN2CCN(C)CC2)c1Cl (atropisomer, axis not shown) [Compound 109] | 1000 to 5000 | − (“−” represents a fold difference less than 10) | > 5000 |
| ≤ 100 | COc1ccccc1-c1nccc(COc2ccccc2C[C@@H](Oc2nsc3cnc(-c4cc(F)c(F)c(F)c4)c(-c4ccc(OCCN5CCN(C)CC5)c(Cl)c4C)c23)C(=O)O)n1 (atropisomer, axis not shown) [Compound 84] | ≤ 1000 | + (“+” represents a fold difference of 10 or more) | > 5000 |
| 501 to 1500 | CCn1ccc(-c2ncc3snc(O[C@H](Cc4ccccc4OCc4ccnc(-c5ccccc5OC)n4)C(=O)O)c3c2-c2ccc(OCCN3CCN(C)CC3)c(Cl)c2C)n1 (atropisomer, axis not shown) [Compound 76] | > 5000 | − (“−” represents a fold difference less than 10) | > 5000 |
| 101 to 500 | COc1ccccc1-c1nccc(COc2ccccc2C[C@@H](Oc2nsc3cnc(-c4cnn(CC5CCC5)c4)c(-c4ccc(OCCN5CCN(C)CC5)c(Cl)c4C)c23)C(=O)O)n1 (atropisomer, axis not shown) [Compound 90] | 1000 to 5000 | − (“−” represents a fold difference less than 10) | > 5000 |
| ≤ 100 | COc1cccc(-c2ncc3snc(O[C@H](Cc4ccccc4OCc4ccnc(-c5ccccc5OC(F)F)n4)C(=O)O)c3c2-c2ccc(OCCN3CCN(C)CC3)c(Cl)c2C)c1 (atropisomer, axis not shown) [Compound 66] | ≤ 1000 | + (“+” represents a fold difference of 10 or more) | > 5000 |
| 501 to 1500 | COc1cccc(-c2ncc3snc(O[C@H](Cc4ccccc4OCc4ccnc(-c5ccccc5OC)n4)C(=O)O)c3c2-c2ccc(OCCN3CCN(C)CC3)c(Cl)c2C)c1 (atropisomer, axis not shown) [Compound 39] | 1000 to 5000 | − (“−” represents a fold difference less than 10) | 1000 to 5000 |
| > 1500 | Cc1c(-c2c(N3CC4(COC4)C3)ncc3snc(O[C@H](Cc4ccccc4OCc4ccnn4CC(F)(F)F)C(=O)O)c23)ccc(OCCN2CCN(C)CC2)c1Cl (atropisomer, axis not shown) [Compound 91] | > 5000 | − (“−” represents a fold difference less than 10) | > 5000 |
| ≤ 100 | COc1ccccc1-c1nccc(COc2ccccc2C[C@@H](Oc2nsc3cnc(-c4ccc(F)c(F)c4)c(-c4ccc(OCCN5CCN(C)CC5)c(Cl)c4C)c23)C(=O)O)n1 (atropisomer, axis not shown) [Compound 85] | ≤ 1000 | + (“+” represents a fold difference of 10 or more) | > 5000 |
| 101 to 500 | COc1ccccc1C[C@@H](Oc1nsc2cnc(-c3cccc(F)c3)c(-c3ccc(OCCN4CCN(C)CC4)c(Cl)c3C)c12)C(=O)O (atropisomer, axis not shown) [Compound 93] | 1000 to 5000 | − (“−” represents a fold difference less than 10) | > 5000 |
| 101 to 500 | CCn1cc(-c2ncc3snc(O[C@H](Cc4ccccc4OCc4ccnc(-c5ccccc5OC)n4)C(=O)O)c3c2-c2ccc(OCCN3CCN(C)CC3)c(Cl)c2C)cn1 (atropisomer, axis not shown) [Compound 75] | > 5000 | − (“−” represents a fold difference less than 10) | > 5000 |
| ≤ 100 | COc1ccccc1-c1nccc(COc2ccccc2C[C@@H](Oc2nsc3cnc(C4CC4)c(-c4ccc(OCCN(C)C)c(Cl)c4C)c23)C(=O)O)n1 (atropisomer, axis not shown) [Compound 56] | ≤ 1000 | + (“+” represents a fold difference of 10 or more) | > 5000 |
